Source: patent publication US20080051418A1, “Arylalkanoic Acid Derivative” (priority 2004, published 2008)

Compared with CCc1cnn(CC(=O)O)c1OCCn1cc(C(=O)NCc2ccc(C(F)(F)F)cc2)c(OC(C)C)n1 [Example 185, (4-ethyl-5-{2-[3-isopropoxy-4-({[4-(trifluoromethyl)benzyl]amino}carbonyl)-1H-pyrazol-1-yl]ethoxy}-1H-pyrazol-1-yl)acetic acid], CCc1cccc(CC(=O)O)c1OCCn1cc(C(=O)NCc2ccc(C(F)(F)F)cc2)c(OC(C)C)n1 [Example 184, (3-ethyl-2-{2-[3-isopropoxy-4-({[4-(trifluoromethyl)benzyl]amino}carbonyl)-1H-pyrazol-1-yl]ethoxy}phenyl)acetic acid] is lower in melting point: 183 to 184 °C for the first, 110 to 111 °C for the second.

First: CC(C)n1nc(COc2ccccc2CC(=O)O)cc1OCc1ccc2ccccc2n1 [Example 55, (2-{[1-isopropyl-5-(quinolin-2-ylmethoxy)-1H-pyrazol-3-yl]methoxy}phenyl)acetic acid]
Second: COc1cccc(CC(=O)O)c1OCCCc1cc(OC(C)C)nn1Cc1ccc2ccccc2n1 [Example 10, (2-{3-[3-isopropoxy-1-(quinolin-2-ylmethyl)-1H-pyrazol-5-yl]propoxy}-3-methoxyphenyl)acetic acid]
The melting point of the first is lower: 116 to 117 °C for the first, 129 to 130 °C for the second.

First: CC(C)Oc1cc(COc2ccc(C(F)(F)F)cc2)cc(COc2cc(CCC(=O)O)n(-c3ccccc3)n2)c1 [Example 202, 3-{3-[(3-isopropoxy-5-{[4-(trifluoromethyl)phenoxy]methyl}benzyl)oxy]-1-phenyl-1H-pyrazol-5-yl}propanoic acid]
Second: CC(C)Oc1cc(COc2cc(CCC(=O)O)n(-c3ccccc3)n2)cc(COc2ncc(C(F)(F)F)cc2Cl)c1 [Example 203, 3-(3-{[3-({[3-chloro-5-(trifluoromethyl)pyridin-2-yl]oxy}methyl)-5-isopropoxybenzyl]oxy}-1-phenyl-1H-pyrazol-5-yl)propanoic acid]
The melting point of the first is lower: 55 to 58 °C for the first, 140 to 142 °C for the second.

First: CCOc1cc(COc2cc(CCC(=O)O)n(-c3ccccc3)n2)cc(COc2ccc(Cl)cc2Cl)c1 [Example 204, 3-[3-({3-[(2,4-dichlorophenoxy)methyl]-5-ethoxybenzyl}oxy)-1-phenyl-1H-pyrazol-5-yl]propanoic acid]
Second: CC(C)Oc1cc(COc2cc(CCC(=O)O)n(-c3ccccc3)n2)cc(COc2ccc(Cl)cc2Cl)c1 [Example 195, 3-[3-({3-[(2,4-dichlorophenoxy)methyl]-5-isopropoxybenzyl}oxy)-1-phenyl-1H-pyrazol-5-yl]propanoic acid]
The melting point of the first is higher: 151.5 to 152 °C for the first, 108 to 110 °C for the second.

Compared with CCn1nc(OCCCc2ccc(OCCOC)cc2OCc2ccc(C(F)(F)F)cc2)cc1CCC(=O)O [Example 170, 3-{1-ethyl-3-[3-(4-(2-methoxyethoxy)-2-{[4-(trifluoromethyl)benzyl]oxy}phenyl)propoxy]-1H-pyrazol-5-yl}propanoic acid], CC(C)Oc1ccc(CCCOc2cc(CCC(=O)O)n(C)n2)c(OCc2ccc(C(F)(F)F)cc2)c1 [Example 167, 3-{3-[3-(4-isopropoxy-2-{[4-(trifluoromethyl)benzyl]oxy}phenyl)propoxy]-1-methyl-1H-pyrazol-5-yl}propanoic acid] is lower in melting point: 112 to 113 °C for the first, 88 to 89 °C for the second.

First: CCOc1cc(Cc2ccccn2)ccc1CCCOc1c(CC(=O)O)cccc1OC [Example 125, (2-{3-[2-ethoxy-4-(pyridin-2-ylmethyl)phenyl]propoxy}-3-methoxyphenyl)acetic acid]
Second: CCOc1ccc(CCCOc2c(CC(=O)O)cccc2OC)c(Oc2ccc(Cl)cc2Cl)n1 [Example 134, (2-{3-[2-(2,4-dichlorophenoxy)-6-ethoxypyridin-3-yl]propoxy}-3-methoxyphenyl)acetic acid]
The melting point of the first is higher: 97.5 to 98.5 °C for the first, 89 to 91 °C for the second.

First: CC(C)Cn1nc(OCCCCc2ccc(OC(C)C)cc2Oc2ncc(C(F)(F)F)cc2Cl)cc1CCC(=O)O [Example 157, 3-{3-[4-(2-{[3-chloro-5-(trifluoromethyl)pyridin-2-yl]oxy}-4-isopropoxyphenyl)butoxy]-1-isobutyl-1H-pyrazol-5-yl}propanoic acid]
Second: CC(C)Oc1ccc(CCCOc2cc(CCC(=O)O)n(-c3ccccc3)n2)c(Oc2ccc(C(F)(F)F)cn2)c1 [Example 172, 3-{3-[3-(4-isopropoxy-2-{[5-(trifluoromethyl)pyridin-2-yl]oxy}phenyl)propoxy]-1-phenyl-1H-pyrazol-5-yl}propanoic acid]
The melting point of the first is higher: 122 to 123 °C for the first, 80 to 82 °C for the second.

First: CCn1nc(OCCCc2ccc(OCCOC)cc2OCc2ccc(Cl)cc2Cl)cc1CCC(=O)O [Example 165, 3-(3-{3-{2-[(2,4-dichlorobenzyl)oxy]-4-(2-methoxyethoxy)phenyl}propoxy}-1-ethyl-1H-pyrazol-5-yl)propanoic acid]
Second: CC(C)Oc1ccc(CCCOc2nn(C)cc2CC(=O)O)c(OCc2ccc(Cl)cc2Cl)c1 [Example 174, [3-(3-{2-[(2,4-dichlorobenzyl)oxy]-4-isopropoxyphenyl}propoxy)-1-methyl-1H-pyrazol-4-yl]acetic acid]
The melting point of the first is higher: 114 to 116 °C for the first, 102 to 103 °C for the second.

First: CCCOc1cc(COc2c(CC)cccc2CC(=O)O)n(Cc2ccc3ccccc3n2)n1 [Example 7, (3-ethyl-2-{[3-propoxy-1-(quinolin-2-ylmethyl)-1H-pyrazol-5-yl]methoxy}phenyl)acetic acid]
Second: CCCn1nc(OCc2ccc3ccccc3n2)cc1COc1c(CC)cccc1CC(=O)O [Example 5, (3-ethyl-2-{[1-propyl-3-(quinolin-2-ylmethoxy)-1H-pyrazol-5-yl]methoxy}phenyl)acetic acid]
The melting point of the first is lower: 110 to 111 °C for the first, 118 to 119 °C for the second.

Compared with CC(C)Oc1cc(CCCOc2cc(CCC(=O)O)n(Cc3ccccc3)n2)n(Cc2ccc(Cl)cc2Cl)n1 [Example 191, 3-(1-benzyl-3-{3-[1-(2,4-dichlorobenzyl) -3-isopropoxy-1H-pyrazol-5-yl]propoxy}-1H-pyrazol-5-yl)propanoic acid], CCOc1nn(Cc2ccc(Cl)cc2Cl)cc1CCCOc1cc(CCC(=O)O)n(Cc2ccccc2)n1 [Example 182, 3-(1-benzyl-3-{3-[1-(2,4-dichlorobenzyl)-3-ethoxy-1H-pyrazol-4-yl]propoxy}-1H-pyrazol-5-yl)propanoic acid] is lower in melting point: 123 to 126 °C for the first, 84 to 85 °C for the second.

First: CC(C)c1nc(CCCOc2ncccc2CC(=O)O)c(Cc2ccc(Cl)cc2Cl)s1 [Example 53, (2-{3-[5-(2,4-dichlorobenzyl)-2-isopropyl-1,3-thiazol-4-yl]propoxy}pyridin-3-yl)acetic acid]
Second: COCOc1cc(CCCOc2ncccc2CC(=O)O)n(Cc2ccc(Cl)cc2Cl)n1 [Example 207, (2-{3-[1-(2,4-dichlorobenzyl)-3-(methoxymethoxy)-1H-pyrazol-5-yl]propoxy}pyridin-3-yl)acetic acid]
The melting point of the first is higher: 106 to 107 °C for the first, 101 to 102 °C for the second.

Compared with COCCOc1cc(Oc2ccc(C(F)(F)F)cn2)ccc1CCCOc1cc(CCC(=O)O)n(-c2ccccc2)n1 [Example 153, 3-{3-[3-(2-(2-methoxyethoxy)-4-{[5-(trifluoromethyl)pyridin-2-yl]oxy}phenyl)propoxy]-1-phenyl-1H-pyrazol-5-yl}propanoic acid], O=C(O)CCc1cc(OCc2cc(COc3ccc(Cl)cc3Cl)cc(OCc3ccccc3)c2)nn1-c1ccccc1 [Example 198, 3-[3-({3-(benzyloxy)-5-[(2,4-dichlorophenoxy)methyl]benzyl}oxy)-1-phenyl-1H-pyrazol-5-yl]propanoic acid] is higher in melting point: 83 to 85 °C for the first, 126 to 130 °C for the second.

First: CC(C)Oc1cc(CCCOc2ncccc2CC(=O)O)n(Cc2ccc(Cl)cc2OC(C)C)n1 [Example 94, (2-{3-[1-(4-chloro-2-isopropoxybenzyl)-3-isopropoxy-1H-pyrazol-5-yl]propoxy}pyridin-3-yl)acetic acid]
Second: CCOc1cccc(CC(=O)O)c1OCCCc1cc(OC(C)C)nn1Cc1ccc(Cl)cc1Cl [Example 23, (2-{3-[1-(2,4-dichlorobenzyl)-3-isopropoxy-1H-pyrazol-5-yl]propoxy}-3-ethoxyphenyl)acetic acid]
The melting point of the first is lower: 82 to 84 °C for the first, 132 to 133 °C for the second.

Compared with CCCOc1cc(CCCOc2nn(C)cc2CC(=O)O)n(Cc2ccc(Cl)cc2Cl)n1 [Example 88, (3-{3-[1-(2,4-dichlorobenzyl)-3-propoxy-1H-pyrazol-5-yl]propoxy}-1-methyl-1H-pyrazol-4-yl)acetic acid], CC(C)Oc1cc(CCCOc2nn(C)cc2CC(=O)O)n(Cc2ccc(Cl)cc2Cl)n1 [Example 32, (3-{3-[1-(2,4-dichlorobenzyl)-3-isopropoxy-1H-pyrazol-5-yl]propoxy}-1-methyl-1H-pyrazol-4-yl)acetic acid] is higher in melting point: 77 to 81 °C for the first, 96 to 97 °C for the second.

First: CCOc1nn(Cc2ccc(Cl)cc2Cl)cc1CCCOc1nn(-c2ccccc2)cc1CCC(=O)O [Example 193, 3-(3-{3-[1-(2,4-dichlorobenzyl)-3-ethoxy-1H-pyrazol-4-yl]propoxy}-1-phenyl-1H-pyrazol-4-yl)propanoic acid]
Second: CCOc1ccc(CCCOc2nn(C)cc2CC(=O)O)c(Oc2ccc(Cl)cc2Cl)n1 [Example 135, (3-{3-[2-(2,4-dichlorophenoxy)-6-ethoxypyridin-3-yl]propoxy}-1-methyl-1H-pyrazol-4-yl)acetic acid]
The melting point of the first is higher: 114 to 118 °C for the first, 81 to 83 °C for the second.

First: CCCOc1cc(CCCOc2c(CC(=O)O)cccc2OC)n(Cc2ccc(Cl)cc2)n1 [Example 81, (2-{3-[1-(4-chlorobenzyl)-3-propoxy-1H-pyrazol-5-yl]propoxy}-3-methoxyphenyl)acetic acid]
Second: CCOc1cc(CCCOc2c(CC(=O)O)cccc2OC)n(Cc2ccc(Cl)cc2Cl)n1 [Example 26, (2-{3-[1-(2,4-dichlorobenzyl)-3-ethoxy-1H-pyrazol-5-yl]propoxy}-3-methoxyphenyl)acetic acid]
The melting point of the first is higher: 131 to 132 °C for the first, 109 to 110 °C for the second.

Work on CCc1cccc(CC(=O)O)c1OCCn1cc(CCOc2ncc(C(F)(F)F)cc2Cl)c(OC(C)C)n1 [Example 188, (2-{2-[4-(2-{[3-chloro-5-(trifluoromethyl)pyridin-2-yl]oxy}ethyl)-3-isopropoxy-1H-pyrazol-1-yl]ethoxy}-3-ethylphenyl)acetic acid] yielded a melting point of 76.5 to 77.5 °C.
